We go through 2 compounds from ChEMBL document CHEMBL5728451, “Pyrimidinone derivatives as SHP2 antagonists” (2021).

In this assay the target is T1, Tyrosine-protein phosphatase non-receptor type 11 (Homo sapiens, UniProt Q06124).
T1 sequence (Q06124 whole entry): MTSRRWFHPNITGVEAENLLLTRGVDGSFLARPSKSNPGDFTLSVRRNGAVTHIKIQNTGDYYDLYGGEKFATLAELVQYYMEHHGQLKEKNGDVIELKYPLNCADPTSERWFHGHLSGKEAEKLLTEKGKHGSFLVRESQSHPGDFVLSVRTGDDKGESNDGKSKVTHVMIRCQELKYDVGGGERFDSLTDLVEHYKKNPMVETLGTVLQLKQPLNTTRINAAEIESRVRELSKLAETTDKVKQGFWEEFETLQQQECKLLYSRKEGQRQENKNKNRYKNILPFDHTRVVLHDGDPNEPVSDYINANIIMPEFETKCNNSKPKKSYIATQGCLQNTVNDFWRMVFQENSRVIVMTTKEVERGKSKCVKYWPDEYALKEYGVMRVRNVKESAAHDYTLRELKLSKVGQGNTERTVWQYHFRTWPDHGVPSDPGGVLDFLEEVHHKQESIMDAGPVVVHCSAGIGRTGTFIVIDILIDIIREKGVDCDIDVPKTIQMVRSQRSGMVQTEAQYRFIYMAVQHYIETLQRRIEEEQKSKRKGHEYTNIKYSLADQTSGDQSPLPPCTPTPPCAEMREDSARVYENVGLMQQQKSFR
Put plainly: Biochemical Assay: The inhibition of SHP2 by compounds of the invention was monitored using the surrogate substrate DiFMUP after protein activation by a peptide bearing two appropriately spaced phosphotyrosine. Full length SHP2 protein (Recombinant HumanSHP-2, E. coli derived Ser2Arg593, N-terminal 6His tag from R&D systems; […]) was incubated with activating peptide, IRSI_2pY (New England ….

As for `Cc1nc(N2CCC(C)(CN)CC2)cc(=O)n1-c1cccc(C(F)(F)F)c1Cl`, the IC50 is 1500 nM.

Take `Cc1nc(N2CCC3(CCCC3CN)CC2)cc(=O)n1-c1cccc(Cl)c1Cl` (configuration not stated): the IC50 is 2100 nM.
